For data set [1], the target named is Adenosine receptor A2a (Homo sapiens) (UniProt P29274). The data set can be described thus: Displacement of [3H]DPCPX from human A2AAR expressed in human HeLa cell membrane at 1 uM incubated for 30 mins by competitive binding assay relative to control. It counts as cell membranes. (In general: Loss of bound radioactivity is the signal in a displacement assay; it reports binding, not function.)

For data set [2], the target named is T1, Adenosine receptor A2b (Homo sapiens) (UniProt P29275).
T1 sequence (whole entry): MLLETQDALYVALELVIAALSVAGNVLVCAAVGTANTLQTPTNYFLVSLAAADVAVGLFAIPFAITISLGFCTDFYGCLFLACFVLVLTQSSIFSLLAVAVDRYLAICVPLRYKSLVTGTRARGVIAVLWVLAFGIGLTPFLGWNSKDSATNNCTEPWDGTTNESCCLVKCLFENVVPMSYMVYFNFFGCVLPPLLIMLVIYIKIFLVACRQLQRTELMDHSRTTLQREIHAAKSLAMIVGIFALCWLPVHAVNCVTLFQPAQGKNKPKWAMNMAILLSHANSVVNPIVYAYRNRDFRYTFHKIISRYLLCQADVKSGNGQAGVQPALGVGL
The data set can be described thus: Antagonist activity against N-terminal pRK5/SNAP-tagged human A2BAR transfected in HEK293T cells assessed as reduction in NECA-induced change in cellular impedence by measuring AUC measured for 45 mins. It counts as functional, cell-based. The following applies: filed as antagonist.

For data set [3], the target named is T2, Cytochrome P450 3A4 (Homo sapiens, UniProt P08684). The data set can be described thus: Inhibition of CYP3A4 (unknown origin) using 7-BFC as substrate preincubated for 5 mins followed by substrate addition by fluorescence based assay. It counts as ADME.
T2 sequence (P08684 whole entry): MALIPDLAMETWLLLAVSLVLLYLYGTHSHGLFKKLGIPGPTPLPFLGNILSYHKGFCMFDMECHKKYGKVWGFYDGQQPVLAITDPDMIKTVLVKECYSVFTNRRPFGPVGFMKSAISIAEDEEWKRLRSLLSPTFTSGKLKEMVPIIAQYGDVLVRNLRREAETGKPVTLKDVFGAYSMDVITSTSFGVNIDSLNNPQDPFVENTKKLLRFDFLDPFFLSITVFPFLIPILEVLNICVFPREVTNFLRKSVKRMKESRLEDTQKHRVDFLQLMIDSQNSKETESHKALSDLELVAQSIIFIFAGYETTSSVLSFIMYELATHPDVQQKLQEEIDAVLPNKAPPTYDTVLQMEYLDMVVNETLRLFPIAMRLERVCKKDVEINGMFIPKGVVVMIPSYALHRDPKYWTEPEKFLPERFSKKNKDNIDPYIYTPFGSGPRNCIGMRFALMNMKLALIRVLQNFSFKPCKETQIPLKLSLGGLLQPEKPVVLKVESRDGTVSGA
Data set [4] can be described thus: Immunostimulatory effect on anti-CD3/CD28 antibodies/IL-2-activated human PBMC cells assessed as reversal of ADO-mediated inhibition of cell proliferation at 15 uM incubated for 3 days by CFSE dye based flow cytometry (reference value: 3.55 %). The arrangement: scale not given: the % may be the effect or the level left. The settings on record: time 3 day. It is filed as functional. For orientation: In flow cytometry, cells or beads pass a laser one at a time.

The nature of data set [5]: Solubility of compound in 1:99 DMSO/PBS incubated for 4 hrs. It counts as physicochemical.
The target in data set [6] is T3, Adenosine receptor A1 (Homo sapiens) (UniProt P30542).
T3 sequence (whole entry): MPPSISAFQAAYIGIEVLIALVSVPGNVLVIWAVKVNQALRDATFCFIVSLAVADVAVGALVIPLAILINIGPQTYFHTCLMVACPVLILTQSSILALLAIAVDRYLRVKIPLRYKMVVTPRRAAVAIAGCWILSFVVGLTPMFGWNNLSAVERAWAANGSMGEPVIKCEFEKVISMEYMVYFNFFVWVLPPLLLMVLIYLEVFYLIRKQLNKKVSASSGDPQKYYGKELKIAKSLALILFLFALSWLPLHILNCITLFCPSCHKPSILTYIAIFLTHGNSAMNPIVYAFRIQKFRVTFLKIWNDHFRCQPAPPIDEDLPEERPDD
The data set can be described thus: Displacement of [3H]DPCPX from human A1AR expressed in CHO cell membrane at 1 uM incubated for 60 mins by competitive binding assay relative to control. It is filed as cell membranes.

Data set [7] addresses T4, Adenosine receptor A3 (Homo sapiens) (UniProt P0DMS8).
T4 sequence (whole entry): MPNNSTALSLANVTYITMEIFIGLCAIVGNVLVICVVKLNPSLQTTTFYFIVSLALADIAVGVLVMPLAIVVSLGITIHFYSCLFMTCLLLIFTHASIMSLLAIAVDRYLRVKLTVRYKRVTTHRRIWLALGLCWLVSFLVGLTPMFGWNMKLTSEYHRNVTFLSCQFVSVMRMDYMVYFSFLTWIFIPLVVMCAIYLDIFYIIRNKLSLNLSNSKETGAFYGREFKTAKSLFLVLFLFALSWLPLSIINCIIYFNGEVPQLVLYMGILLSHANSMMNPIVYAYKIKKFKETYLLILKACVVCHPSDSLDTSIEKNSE
The data set can be described thus: Displacement of [3H]NECA from human A3AR expressed in human HeLa cell membrane at 1 uM incubated for 180 mins by competitive binding assay relative to control. It counts as cell membranes.

The target in data set [8] is T2, Cytochrome P450 3A4.
Description: Inhibition of CYP3A4 (unknown origin) using DBF as substrate preincubated for 5 mins followed by substrate addition by fluorescence based assay

≈ marks a conversion by molar mass, not a printed value. Calls of active or inactive are those of the source. The calls are words filed in the database; no cut-off is given here.

Sequence of Adenosine receptor A2a (Homo sapiens) (P29274 whole entry): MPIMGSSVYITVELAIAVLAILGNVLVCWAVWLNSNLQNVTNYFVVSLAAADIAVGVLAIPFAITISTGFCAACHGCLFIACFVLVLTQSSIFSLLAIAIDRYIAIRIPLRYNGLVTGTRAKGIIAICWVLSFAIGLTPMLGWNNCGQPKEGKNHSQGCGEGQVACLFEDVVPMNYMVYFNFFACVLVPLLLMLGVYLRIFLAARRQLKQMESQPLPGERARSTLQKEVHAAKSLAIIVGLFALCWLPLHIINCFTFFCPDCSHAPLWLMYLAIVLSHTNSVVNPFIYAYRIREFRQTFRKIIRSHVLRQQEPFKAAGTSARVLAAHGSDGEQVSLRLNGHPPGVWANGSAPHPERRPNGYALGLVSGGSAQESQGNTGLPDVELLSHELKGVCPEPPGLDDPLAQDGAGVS

As for `CCOC(=O)C1=C(C)Nc2nc3cc(Br)ccc3n2[C@@H]1c1ccoc1`, in data set [1], the Activity was 12%.

A word on the IC50: it is the point on the concentration scale where inhibition reaches its midpoint. In the case of `CC1=C(C(=O)OC(C)C)C(c2ccco2)n2c(nc3cc(Cl)ccc32)N1` (racemic), the result in data set [2] was Active. This molecule gave an IC50 in data set [3] of over 10 µM. Moreover, the Activity in data set [4] is 6.64%.

One may read the kinetic solubility as solubility judged after dilution from a stock solution rather than from solid. Consider `CC1=C(C(=O)OC(C)C)C(c2cocn2)n2c(nc3ccccc32)N1` (centres undefined), for which the solubility (kinetic) at 4 h in data set [5] came to 39.7 µM (≈ 13.4 µg/mL). Also, the Activity turned out to be 19% in data set [1], 7% in data set [6] and 16% in data set [7].

In data set [5], `CCCn1c(=O)[nH]c2[nH]c(-c3ccc(S(=O)(=O)C4CCC(c5ccc(Cl)cc5)CC4)cc3)nc2c1=O` (centres undefined) gave a kinetic solubility at 4 h of 0.2 µM (≈ 0.105 µg/mL).

On to `CC1=C(C(=O)OC(C)C)C(c2ccco2)n2c(nc3cc(F)c(F)cc32)N1` (racemic), for which the 50% inhibitory concentration (IC50) in data set [3] and in data set [8] was over 10 µM in each case.

In data set [7], `CCOC(=O)C1=C(C)Nc2nc3cc(Br)ccc3n2[C@H]1c1ccoc1` showed an Activity of 10%.

Take `CC1=C(C(=O)OC(C)C)C(c2ccco2)n2c(nc3cc(Br)ccc32)N1` (racemic): the outcome in data set [2] was Active. This molecule also yielded an IC50 in data set [3] of over 10 µM.

For `CC1=C(C(=O)OC(C)C)C(c2ccco2)n2c(nc3cc(F)ccc32)N1` (racemic), the result in data set [2] was Active. Further, the IC50 in data set [3] and in data set [8] was over 10 µM throughout.

`CC1=C(C(=O)OC(C)C)C(c2ccco2)n2c(nc3ccccc32)N1` (centres undefined) had a solubility (kinetic) at 4 h in data set [5] of 25.2 µM (≈ 8.5 µg/mL).

On to `CC1=C(C(=O)OC(C)C)[C@@H](c2ccco2)n2c(nc3cc(Br)ccc32)N1`, for which the Activity in data set [1] is 14%.

Consider `CCOC(=O)C1=C(C)Nc2nc3cc(Br)ccc3n2C1c1ccoc1` (racemic), for which the outcome in data set [2] was Active.

For the molecule `CCOC(=O)C1=C(C)Nc2nc3ccccc3n2C1c1cocn1` (centres undefined), the Activity is 5% in data set [6] and 7% in data set [7].

In turn, `CC1=C(C(=O)OC(C)C)C(c2ccoc2)n2c(nc3ccccc32)N1` (centres undefined) gave a solubility (kinetic) at 4 h in data set [5] of 26.1 µM (≈ 8.81 µg/mL). In data set [1], this molecule yielded an Activity of 23%.

The values are drawn from ChEMBL document CHEMBL5321195, “Exploring the Effect of Halogenation in a Series of Potent and Selective A2B Adenosine Receptor Antagonists” (J Med Chem, 2023).
